From US12145914B2, “Compound having oxadiazole and pharmaceutical composition containing the same” (SK BIOPHARMACEUTICALS CO., LTD., priority 2018, dated 2024)

System: focal onset seizures induced by electrostimulation of 44 mA, 6 Hz, 3 sec in ICR mouse
Assay: 6 Hz method for screening anticonvulsants (6 Hz, 44 mA electrostimulation)
Type: in vivo
Settings: male ICR mice, intraperitoneal (ip), electrostimulation 44 mA, 3 sec to the eye, number of non-seizure animals/number of animals used
Source text: The utility of the compounds according to the present invention as an anticonvulsant agent has been investigated by the 6 Hz method, which has been well established as pharmacological screening methods of convulsant agents for focal onset seizures. The procedure of the 6 Hz method for screening anticonvulsant was as follows:
1) Preparation of Experimental Animals
Male ICR mice are purchased from Orient Bio, Inc. of Korea, and are stored and managed according to laboratory animal management standards of the Institutional Animal Care and Use Committee (IACUC) by putting the same in a wire net cage under an environment in which an ambient temperature of 19 to 25° C., 40 to 60% relative humidity and 12 hour periods of light/dark were auto-controlled, and water was freely taken. After stabilization for a week, mice with a body weight of 18 to 23 g were used in the experiment.
2) Evaluation of the Anticonvulsant Effect of a Compound
5% Tetracaine (Sigma) was added to both eyes to provide a local anesthetic effect at 5 to 10 minutes before the period of electrical stimulation at the animal ICR mouse. The compounds to be tested were dissolved in distilled water in which 30% polyethylene glycol 300+5% dimethylsulfoxide+5% Cremophor was dissolved and administered intraperitoneally (ip) to the animal at a dosage volume of 10 mL/kg. Then, electrostimulation of 44 mA, 6 Hz, and 3 sec was applied to the eye to induce focus-generating seizures. After the electrical stimulation, the presence of seizures due to drug effects was confirmed, and the ratio of animals showing no seizures was expressed as a protection rate (the number of non-seizure animals/the number of animals used in experiments=protection rate). […]

Structure (SMILES)	6 Hz, 44 mA protection rate
NC(=O)OC(Cc1nnco1)c1cc(-c2ccc(C(F)(F)F)cc2)ccc1Cl (stereo not shown) [Example 51, [1-[2-chloro-5-[4-(trifluoromethyl)phenyl]phenyl]-2-(1,3,4-oxadiazol-2-yl)ethyl]carbamate]	+ (0.2 to 0.6 are scored as ‘+’)
OC(Cc1nnco1)c1cccc(-c2ccc(C(F)(F)F)cc2)c1 (stereo not shown) [Example 52, 2-(1,3,4-oxadiazol-2-yl)-1-[3-[4-(trifluoromethyl)phenyl]phenyl]ethanol]	+ (0.2 to 0.6 are scored as ‘+’)
CCc1nnc(CC(O)c2cccc(-c3ccc(C(F)(F)F)cc3)c2)o1 (stereo not shown) [Example 53, 2-(5-ethyl-1,3,4-oxadiazol-2-yl)-1-[3-[4-(trifluoromethyl)phenyl]phenyl]ethanol]	+ (0.2 to 0.6 are scored as ‘+’)
CC(=O)OC(Cc1nnc(C)o1)c1cccc(-c2ccc(C(F)(F)F)cc2)c1 (stereo not shown) [Example 55, [2-(5-methyl-1,3,4-oxadiazol-2-yl)-1-[3-[4-(trifluoromethyl)phenyl]phenyl]ethyl]acetate]	+ (0.2 to 0.6 are scored as ‘+’)
COC(Cc1nnc(C)o1)c1cccc(-c2ccc(C(F)(F)F)cc2)c1 (stereo not shown) [Example 56, 2-[2-methoxy-2-[3-[4-(trifluoromethyl)phenyl]phenyl]ethyl]-5-methyl-1,3,4-oxadiazole]	++ (0.6 to 0.8 are scored as ‘++’)
Cc1nnc(CC(O)c2cccc(-c3ccc(OC(F)(F)F)cc3)c2)o1 (stereo not shown) [Example 59, 2-(5-methyl-1,3,4-oxadiazol-2-yl)-1-[3-[4-(trifluoromethoxy)phenyl]phenyl]ethanol]	++ (0.6 to 0.8 are scored as ‘++’)
Cc1nnc(CC(O)c2cccc(-c3ccc(Cl)cc3)c2)o1 (stereo not shown) [Example 65, 1-[3-(4-chlorophenyl)phenyl]-2-(5-methyl-1,3,4-oxadiazol-2-yl)ethanol]	++ (0.6 to 0.8 are scored as ‘++’)
Cc1nnc(CC(OC(N)=O)c2cccc(-c3ccc(F)cc3)c2)o1 (stereo not shown) [Example 72, [1-[3-(4-fluorophenyl)phenyl]-2-(5-methyl-1,3,4-oxadiazol-2-yl)ethyl] carbamate]	+ (0.2 to 0.6 are scored as ‘+’)
Cc1nnc(CC(OC(N)=O)c2cccc(-c3ccc(Cl)cc3)c2)o1 (stereo not shown) [Example 75, [1-[3-(4-chlorophenyl)phenyl]-2-(5-methyl-1,3,4-oxadiazole-2-yl)ethyl] carbamate]	+ (0.2 to 0.6 are scored as ‘+’)
Cc1nnc(CC(OC(N)=O)c2cccc(-c3ccc(OC(F)(F)F)cc3)c2)o1 (stereo not shown) [Example 78, [1-[3-[4-(trifluoromethoxy)phenyl]phenyl]-2-(5-methyl-1,3,4-oxadiazol-2-yl)ethyl] carbamate]	++ (0.6 to 0.8 are scored as ‘++’)
Nc1nnc(-c2cccc(Cl)c2Cl)c(N)n1 [Lamotrigine, reference compound]	− (the protection rates 0 to 0.2 are scored as ‘−’)
CC[C@@H](C(N)=O)N1CCCC1=O [Levitiracetam, (S)-α-ethyl-2-oxo-1-pyrrolidine acetamide, reference compound]	− (the protection rates 0 to 0.2 are scored as ‘−’)
CC1(C)O[C@@H]2[C@@H](CO[C@@]3(COS(N)(=O)=O)OC(C)(C)O[C@@H]23)O1 [Topiramate, reference compound]	− (the protection rates 0 to 0.2 are scored as ‘−’)
